Test results from patent US9340577B2, “HLA binding motifs and peptides and their uses” (priority 1992, dated 2016).
No end group written: not given here.

Experiments:
Test in all cases: biochemical
Assay type in all cases: binding
[1] = molecular target: A*3301 (Homo sapiens, UniProt P04439, A270S/D185E/E176V/E277Q/E87N/F33T/G231S/H175R/I121M/I218V/I322F/K168Q/K210R/L300P/L318F/M331R/P217A/Q86R/Q94H/R138Q/T323A/T345S/T97I/V358M/Y195H)
[2] = molecular target: A31 (A*3101) (Homo sapiens, UniProt P04439, A270S/D185E/E176V/E277Q/F33T/G231S/G80R/H175R/I121M/I218V/I322F/K168Q/L300P/L318F/M331R/P217A/Q94H/R138Q/T323A/T345S/T97I/V358M)
[3] = molecular target: HLA-A11 (A*1101) (Homo sapiens, UniProt P04439, A114D/D185E/E176A/F33Y/L180Q/S129P/T187R)
[4] = molecular target: HLA-A3.2 (A*0301) (Homo sapiens, UniProt P04439)
[5] = molecular target: A*6801 (Homo sapiens, UniProt P04439, A269V/D185E/E176V/E277Q/E87N/F33Y/G231S/I121M/I166T/I218V/L180W/L300P/L318F/N151K/P208A/P217A/Q86R/R169H/T345S)

| Sequence | IC50 [1] [nM] | IC50 [2] [nM] | IC50 [3] [nM] | IC50 [4] [nM] | IC50 [5] [nM] |
| --- | --- | --- | --- | --- | --- |
| SFFQNLQVIR [Peptide 9012.0232] | 702 | 432 | 3990 | 3800 | 1400 |
| AAEGVGAASR [Peptide 9017.0187] | 5100 | 3270 | 478 | > 20000 | 450 |
| VVQQLLMGA [Peptide 78.0338] | 438 | 2830 | > 20000 | > 20000 | 1440 |
| VTIYYGVPVWK [Peptide 1525.03] | > 20000 | 534 | 2.5 | 42 | 28 |
| KQEAVRHFPR [Peptide 9017.0239] | 575 | 9.9 | 394 | 9260 | 6740 |
| RLIERIRER [Peptide 9017.0124] | 1100 | 14 | 407 | 57 | 983 |
| SVYGTTLEK [Peptide 78.0282] | > 20000 | 8880 | 3.8 | 19 | 15 |
| TTNCTYKGR [Peptide 1589.41] | 165 | 58 | 2210 | > 20000 | 38 |
| RLLKETELRK [Peptide 9012.0248] | > 20000 | 7010 | 52 | 27 | 12800 |
| HLFRYSWYK [Peptide 76.0171] | 83 | 62 | 16 | 21 | 27 |
| GLGISYGRK [Peptide 1577.25] | > 20000 | > 20000 | 2150 | 64 | > 20000 |
| GVVFGILIKK [Peptide 9012.0242] | > 20000 | > 20000 | 17 | 484 | 146 |
| ATMCRHYKR [Peptide 1587.08] | 42 | 10 | 28 | 90 | 60 |
| HLFTYSWYK [Peptide 76.0164] | 137 | 35 | 7.7 | 4.9 | 19 |
| KLFLKGVPK [Peptide 1587.41] | 9680 | 1.5 | 17 | 16 | > 20000 |
| SIVGWPAVR [Peptide 9017.0058] | 469 | 79 | 632 | 1090 | 21 |
| TVSAELPR [Peptide 1556.22] | 10100 | 11500 | 1880 | > 20000 | 214 |
| AILGHIVRPR [Peptide 9017.0226] | 240 | 7.1 | 160 | 49 | 234 |
| KTLLQPYCLY [Peptide 88.0153] | 19600 | 4280 | 405 | 180 | > 20000 |
| LVYQDTILWK [Peptide 9012.0221] | > 20000 | > 20000 | 32 | 199 | 155 |
| NLQGKLYYK [Peptide 88.0375] | 9.4 | 363 | 55 | 277 | 98 |
| VTVYYGIPVWR [Peptide 1525.05] | 4.5 | 3.8 | 17 | 123 | 3.6 |
| KLVEDRWNK [Peptide 9017.0107] | > 20000 | 61 | 102 | 265 | 18000 |
| LLLIRFKCSK [Peptide 88.0191] | 17400 | 749 | 3520 | 284 | 879 |
| CTYSPALNR [Peptide 1556.42] | 8.6 | 17 | 9.6 | 27 | 19 |
| ATTPIIHLK [Peptide 1589.18] | 11200 | 49 | 7.6 | 9.7 | 6.7 |
| RLECAIYYK [Peptide 1589.01] | 6550 | 150 | 30 | 55 | 7020 |
| TFWNPPTTAR [Peptide 1556.02] | 40 | 57 | 1500 | 18100 | 29 |

| Sequence | IC50 [1] [nM] | IC50 [2] [nM] | IC50 [3] [nM] | IC50 [4] [nM] | IC50 [5] [nM] |
| --- | --- | --- | --- | --- | --- |
| RLKAICIEK [Peptide 1587.01] | > 20000 | 20 | 520 | 43 | > 20000 |
| YVMAGVGSPK [Peptide 9012.0253] | 219 | 5730 | 13 | 25 | 18 |
| SVICFVNSK [Peptide 1587.15] | 2850 | 1910 | 3.5 | 109 | 8.6 |
| VSIEWRLRR [Peptide 9017.0088] | 29 | 3.1 | 6.9 | 338 | 131 |
| EQNEALELK [Peptide 1556.69] | > 20000 | 2300 | 128 | 166 | 11800 |
| KISEYRHYCY [Peptide 78.0082] | 2350 | 4850 | 163 | 152 | 2000 |
| QVVPALSVSK [Peptide 1589.13] | > 20000 | 8920 | 25 | 825 | 12 |
| GSLQYLALK [Peptide 9017.0096] | 14400 | 72 | 6.6 | 17 | 10000 |
| KGLGISYGRKK [Peptide 1577.23] | > 20000 | 49 | 6210 | 23 | > 20000 |
| SFFSRTWSR [Peptide 1587.16] | 0.59 | 0.29 | 26 | 1140 | 3.6 |
| VTVYYGVPIWK [Peptide 1525.02] | 1350 | 150 | 2.3 | 18 | 5 |
| VTIRVAGQVK [Peptide 1516.04] | > 20000 | 4600 | 21 | 53 | 52 |
| STWHWTGCNK [Peptide 1589.28] | 1900 | 160 | 15 | 72 | 32 |
| ALFTAQEAK [Peptide 88.0323] | 16100 | 2660 | 13 | 28 | 603 |
| ILLLLIRFK [Peptide 88.0386] | 402 | 48 | 1880 | 120 | 2500 |
| FTDLRIVYR [Peptide 1550.08] | 9.7 | 65 | 10500 | 2940 | 158 |
| VFADLRIVYR [Peptide 78.0073] | 52 | 31 | 2090 | > 20000 | 197 |
| LTNILNVLK [Peptide 1587.02] | 2030 | 210 | 4.6 | 221 | 12 |
| AQIEHWKLTR [Peptide 88.0226] | > 20000 | 293 | 63 | 2070 | 2900 |
| ISWLGLRSLK [Peptide 9012.0234] | 2500 | 265 | 18 | 31 | 39 |
| EFMSFLTALK [Peptide 1587.10] | 21 | 5960 | 683 | 477 | 20 |
| AIVVWTIAY [Peptide 9017.0115] | 5230 | 3190 | 9.2 | 121 | 7190 |
| ITYSDETQR [Peptide 88.0429] | 1350 | 879 | 165 | 2960 | 26 |
| QVVPPINISK [Peptide 1589.23] | > 20000 | 1560 | 11 | 1280 | 14 |
| VTVQYDNDKK [Peptide 88.0216] | > 20000 | > 20000 | 100 | 18200 | 1150 |
| KVSEFRWYR [Peptide 78.0281] | 32 | 10 | 15 | 43 | 23 |
| FTAFLVAFK [Peptide 88.0389] | 76 | 663 | 15 | 45 | 23 |
